How the values were obtained:
gastric H/K ATPase [1] = biological target: T1, gastric H/K ATPase (Oryctolagus cuniculus, UniProt P27112); test: H+ transport (acidification) by rabbit gastric H/K ATPase vesicles reconstituted in phospholipid-coated PC filters; type: biochemical; details: 100 μM SCH28080, rabbit gastric vesicles, P<0.02
T1 construct: Hog and stimulated rabbit gastric membrane vesicles are isolated according to methods known in the art; from tissue; host or cells: stimulated rabbit gastric membrane vesicles
Protocol: (§1) Hog and stimulated rabbit gastric membrane vesicles are isolated according to methods known in the art (Saccomani et al. Biochim. Biophys. Acta 465 (1977) 311-330, Cuppoletti, et al. J. Biol. Chem. 259 (1984) 14952-1 4959). A lipid bilayer is made on 0.4 μm polycarbonate filters (area=0.11 cm^2) in Multiscreen Caco-2 filter plates. […] of 40 mg/ml 3:1 POPS:POPE in n-decane is added to the filter (inner well) and after 30 min 100 mM K-gluconate solution is added to both sides (inner & outer wells). After 2 hrs, resistance is measured with a multimeter and Ag/AgCl electrodes to ensure that a bilayer had formed. The K-gluconate solution in the inner well is removed and 5 μl of hog or stimulated rabbit gastric vesicles are added to the inner well and left for 1 hr. Resistance is then measured in 100 mM K-gluconate, KCL, NaCl and NMDGCI. To measure H^+ transport, 200 μl 10 mM KCL is added to the outer well and 100 μl of 100 mM KCL, 10 mM HEPES pH 7.4 is added to the inner well. pH of the medium in the outer well (pHo) is measured using a PHR-146 pH Electrode (LAZAR Research Labs. Los Angeles, Calif.) and an Accumet pH meter 910 (Fisher, Pittsburgh, Pa.). When the pHo is almost constant, 5 μl 100 mM MGATP solution and 1 μl 10 mg/ml valinomycin are added to the inner well and pHo was followed. […] The change in pHo over time is recorded using AXOTAPE (Union City, Calif.).

[2] = system: gastric proton pump H/K ATPase; test: Example 1: ATP-dependent transport of acid across the bilayer with reconstituted gastric proton pump; type: biochemical; details: 100 μm SCH-28080
Excerpt: This example illustrates an embodiment of bilayer formation, membrane transport reconstitution and testing for functionality. The bilayer is formed over pores of a polycarbonate substrate comprising naturally present pores or drilled holes. Millipore micro porous polycarbonates of various pore sizes (0.4, 3, 5, and 8 μm, e.g.) are commercially available, and a multi-well porous plastic plate with 10-100 μm Lenox-laser drilled holes (1/well) is available from Procter & Gamble Co. and is used for stable bilayer formation. Techniques for bilayer preparation are known by those of ordinary skill in the art. […] The bilayer is verified according to the gramicidin-D (a cation selective antibiotic) method wherein electrical resistance is monitored to observe the effect of gramicidin in reducing the resistance of the membrane. Current flow is measured by placing one electrode in the desired well and one in the surrounding liquid outside the well. […]
The verified bilayer is incubated with vesicles comprising H/K ATPase or Kv1.5 potassium channels. 3 μl of vesicles is added to each well which was determined to have a verified bilayer. Spontaneous fusion with the bilayer is allowed to proceed for 30 minutes to one hour, at which point H/K ATPase induced acidification or potassium ion currents across the bilayer membrane are measured. […] The current is measured as described earlier, after one hour. […]

gastric H/K ATPase [3] = biological target: T2, gastric H/K ATPase (Sus scrofa, UniProt P19156); test: H+ transport (acidification) by hog gastric H/K ATPase vesicles reconstituted in phospholipid-coated PC filters; type: biochemical
T2 construct: Hog and stimulated rabbit gastric membrane vesicles are isolated according to methods known in the art; from tissue; host or cells: hog gastric membrane vesicles
Protocol: as §1

[4] = Ion flux across the inventive membrane with gramicidin D as ionophore
[5] = Assay of lipid bilayer formation: resistance across phospholipid-coated porous membranes with gramicidin D
Protocol: (§2) Bilayer formation is studied using PC, PETE and PLLA membranes (area=0.3 cm^2). Phospholipid bilayers are made by adding […] of 3:1 POPS:POPE (40 mg/ml) in n-decane to the membranes and waiting for 30 min. 100 mM KCL/10 mM HEPES (pH 7.4), is then added to both sides of the membrane (150 μl inside insert or well; 200 outside solution) and left for 30 minutes. A multimeter and Ag/AgCl reference electrodes are used to measure the resistance across the phospholipid-coated membranes. When gramicidin D is used, it is mixed with the lipids to a final concentration of 1 μg/ml. 10 μl of the lipid/gramicidin mixture is added to the membranes. After 30 minutes medium is added to both sides of the lipid-coated membrane (both inner and outer wells) and left for another 30 minutes. Resistances of the lipid-coated membranes are measured with two different media bathing the lipid bilayer on both sides: 100 mM KCl/10 mM HEPES (pH 7.4) and 100 mMNMDGCI/10 mM HEPES (pH 7.4). Reconstitution of gramicidin D is also done using the 96-well plastic plate with laser drilled holes and current is measured as described below.

[6] = Gramicidin D reconstituted in the phospholipid bilayer in 50 μm holes of the 96-well plastic plate, current measurement; details: KCl medium, +70 mV
Protocol: as §2, with “below. […]” for “below.”

Kv1.5 K+ channels [7] = biological target: T3, Kv1.5 K+ channels (Homo sapiens, UniProt P22460); test: Kv1.5 K+ channel vesicles reconstituted in phospholipid bilayers in 50 μm laser-drilled holes of a 96-well plastic plate, current measurement; type: biochemical
T3 construct: expressed in transfected cells; host or cells: Ltk- mouse fibroblast cells, stably transfected, dexamethasone-induced; plasma membrane vesicles
Protocol: The verified bilayer is incubated with vesicles comprising H/K ATPase or Kv1.5 potassium channels. 3 μl of vesicles is added to each well which was determined to have a verified bilayer. Spontaneous fusion with the bilayer is allowed to proceed for 30 minutes to one hour, at which point H/K ATPase induced acidification or potassium ion currents across the bilayer membrane are measured. A desired amount of […] is added to the well (for example, add 90 μl of 100 mM KCl for […], add 92.5 μl of 100 MM KCl for 750 nM). The well tray is placed back into the holder with the 100 mM KCl and current flow is measured as before. Add a desired amount of a suitable 10 μM inhibitor to achieve a final desired concentration with the final volume of 100 μl. When the gastric proton pump H/K ATPase is reconstituted on the bilayer over the pores, ATP-dependent transport of acid across the bilayer is observed that can be inhibited by 100 μm SCH-28080 (a specific inhibitor of the H/K ATPase). The current is measured as described earlier, after one hour. […] Ion currents are not present when the vesicles lack Kv1.5 or when Kv1.5 vesicles are boiled.
To investigate reconstitution of ion channels, plasma membrane vesicles containing Kv1.5, K^+ channels are prepared from an Ltk^− cell line (mouse fibroblast cells) stably overexpressing Kv1.5 K^+ channels under the control of a dexamethasone promoter as previously described (Matsuno, et al. Biochem. Biophys. Acta 1665 (2004) 184-190). Dexamethasone-specific induction of channel expression is totally specific for Kv1.5 channels. […] A 96-well plastic plate with laser drilled pores varying from 10-100 μm (1/well) is used. Well area is 0.3 cm^2. The phospholipid bilayer is made by adding 5 μl of 40 mg/ml 3:1 POPS:POPE in n-decane to each well. After 30 min 100 mM KCl/20 mM HEPES (pH 7.4) is added to both sides of the bilayer (both inner and outer wells). After a further 30 min, the solution from the inner well is removed and plasma membrane vesicles (5 μl) containing Kv1.5 K^+ channels are added to the lipid coated wells. After 30 min, 100 mM KCl/20 mM HEPES (pH 7.4) is returned to the well and currents across the bilayer are measured with an HS-2A headstage and Gene Clamp 500 amplifier (Axon Instruments, Foster City, Calif.) and filtered at 50 Hz. Voltages ranging from −80 to +70 mV are applied in 10-mV increments for 200 msec and electrical currents are recorded using pCLAMP version 5.5. When indicated, compound B, an inhibitor of Kv1.5 K^+ channels (see U.S. Pat. No. 6,174,908) is added.

Kv1.5 K+ channels [8] = biological target: T3, Kv1.5 K+ channels; test: Kv1.5 K+ channel vesicles reconstituted in phospholipid-coated leached PLLA membranes, resistance measurement; type: biochemical; details: 1 μM compound B, KCl, n=8; PL alone 7.39, PL+Kv1.5 vesicles 0.55 MΩ
Protocol: as §2
Reconstitution of Kv1.5 K^+ channels is also carried out using lipid coated PLLA membranes (area=0.3 cm2) and resistance is measured as described in the previous section. Effects of compound B are also tested.

T3 sequence (P22460 whole entry): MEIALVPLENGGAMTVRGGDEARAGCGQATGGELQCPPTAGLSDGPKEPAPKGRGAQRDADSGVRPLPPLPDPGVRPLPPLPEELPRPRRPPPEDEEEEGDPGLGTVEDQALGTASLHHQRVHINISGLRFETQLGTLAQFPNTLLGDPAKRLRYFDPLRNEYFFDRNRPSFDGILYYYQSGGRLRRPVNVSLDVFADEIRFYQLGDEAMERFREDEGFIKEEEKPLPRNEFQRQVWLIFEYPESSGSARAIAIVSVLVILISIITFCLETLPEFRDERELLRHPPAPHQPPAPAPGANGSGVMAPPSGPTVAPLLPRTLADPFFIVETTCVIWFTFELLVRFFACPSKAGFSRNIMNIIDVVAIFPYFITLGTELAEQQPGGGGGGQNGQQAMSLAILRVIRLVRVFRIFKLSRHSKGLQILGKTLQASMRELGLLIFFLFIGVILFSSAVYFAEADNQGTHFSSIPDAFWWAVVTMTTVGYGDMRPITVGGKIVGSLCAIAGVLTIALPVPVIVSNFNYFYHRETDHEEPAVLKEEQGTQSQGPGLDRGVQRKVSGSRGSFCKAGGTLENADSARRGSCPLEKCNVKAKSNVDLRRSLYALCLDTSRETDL
T2 sequence (P19156 whole entry): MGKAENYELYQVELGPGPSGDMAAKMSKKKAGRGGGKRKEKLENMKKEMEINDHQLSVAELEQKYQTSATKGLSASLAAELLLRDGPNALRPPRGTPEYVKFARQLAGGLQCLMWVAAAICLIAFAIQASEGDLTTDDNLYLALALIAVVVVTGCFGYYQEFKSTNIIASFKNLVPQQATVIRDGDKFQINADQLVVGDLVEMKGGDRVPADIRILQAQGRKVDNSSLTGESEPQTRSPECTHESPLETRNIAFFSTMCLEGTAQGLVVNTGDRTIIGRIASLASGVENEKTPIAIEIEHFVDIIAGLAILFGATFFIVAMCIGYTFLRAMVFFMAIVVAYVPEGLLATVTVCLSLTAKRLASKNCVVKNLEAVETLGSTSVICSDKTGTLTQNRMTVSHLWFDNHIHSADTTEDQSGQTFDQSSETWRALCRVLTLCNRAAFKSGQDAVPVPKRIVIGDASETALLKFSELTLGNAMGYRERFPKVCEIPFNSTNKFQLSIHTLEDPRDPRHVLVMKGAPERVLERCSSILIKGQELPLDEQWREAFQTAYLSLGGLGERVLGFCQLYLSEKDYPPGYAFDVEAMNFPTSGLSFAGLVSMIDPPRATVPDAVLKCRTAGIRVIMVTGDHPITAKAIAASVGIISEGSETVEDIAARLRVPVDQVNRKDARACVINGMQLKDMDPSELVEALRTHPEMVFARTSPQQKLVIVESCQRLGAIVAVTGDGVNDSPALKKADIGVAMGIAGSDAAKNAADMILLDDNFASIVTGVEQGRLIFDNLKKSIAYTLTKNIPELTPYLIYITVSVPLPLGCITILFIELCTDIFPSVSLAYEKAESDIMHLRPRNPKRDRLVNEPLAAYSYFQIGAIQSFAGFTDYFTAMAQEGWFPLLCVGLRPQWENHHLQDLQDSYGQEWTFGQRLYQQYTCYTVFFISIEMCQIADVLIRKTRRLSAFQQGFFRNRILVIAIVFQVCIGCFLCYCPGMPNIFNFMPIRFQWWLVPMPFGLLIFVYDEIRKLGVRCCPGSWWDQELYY
T2 sequence (P18434 whole entry partner): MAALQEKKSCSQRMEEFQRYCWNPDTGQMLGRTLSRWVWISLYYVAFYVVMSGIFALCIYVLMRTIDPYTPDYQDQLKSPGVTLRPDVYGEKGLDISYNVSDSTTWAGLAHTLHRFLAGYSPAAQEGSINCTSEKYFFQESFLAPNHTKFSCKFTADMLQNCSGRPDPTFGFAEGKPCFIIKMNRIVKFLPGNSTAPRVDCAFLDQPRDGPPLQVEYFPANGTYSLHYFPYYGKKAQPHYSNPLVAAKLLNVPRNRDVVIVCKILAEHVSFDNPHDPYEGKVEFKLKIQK
T1 sequence (P27112 whole entry): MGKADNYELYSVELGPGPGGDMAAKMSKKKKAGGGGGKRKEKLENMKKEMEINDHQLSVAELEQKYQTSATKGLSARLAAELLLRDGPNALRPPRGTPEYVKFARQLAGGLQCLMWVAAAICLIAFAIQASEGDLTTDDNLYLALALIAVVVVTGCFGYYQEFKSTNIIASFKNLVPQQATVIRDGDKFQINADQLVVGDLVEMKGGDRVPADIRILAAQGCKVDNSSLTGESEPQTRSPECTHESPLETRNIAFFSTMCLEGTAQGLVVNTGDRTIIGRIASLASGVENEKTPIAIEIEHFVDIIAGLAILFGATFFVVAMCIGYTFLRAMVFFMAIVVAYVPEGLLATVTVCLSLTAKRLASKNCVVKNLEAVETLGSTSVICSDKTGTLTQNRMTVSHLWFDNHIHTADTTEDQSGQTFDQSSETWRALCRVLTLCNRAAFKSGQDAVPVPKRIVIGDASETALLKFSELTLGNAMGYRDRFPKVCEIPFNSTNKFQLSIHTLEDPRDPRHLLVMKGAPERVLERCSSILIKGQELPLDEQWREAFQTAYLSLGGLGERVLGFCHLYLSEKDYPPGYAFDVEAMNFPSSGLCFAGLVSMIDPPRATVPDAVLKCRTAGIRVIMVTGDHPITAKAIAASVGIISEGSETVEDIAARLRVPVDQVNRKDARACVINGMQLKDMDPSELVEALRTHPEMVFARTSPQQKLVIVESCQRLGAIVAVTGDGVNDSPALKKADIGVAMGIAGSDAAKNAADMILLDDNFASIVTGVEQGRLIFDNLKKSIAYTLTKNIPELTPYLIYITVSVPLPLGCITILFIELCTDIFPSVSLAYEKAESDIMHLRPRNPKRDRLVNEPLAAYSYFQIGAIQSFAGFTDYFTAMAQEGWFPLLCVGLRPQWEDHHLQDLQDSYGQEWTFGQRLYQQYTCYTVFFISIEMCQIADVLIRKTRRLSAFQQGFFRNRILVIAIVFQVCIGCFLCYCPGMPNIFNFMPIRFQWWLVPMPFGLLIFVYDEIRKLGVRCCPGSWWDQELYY
T1 sequence (P18597 whole entry partner): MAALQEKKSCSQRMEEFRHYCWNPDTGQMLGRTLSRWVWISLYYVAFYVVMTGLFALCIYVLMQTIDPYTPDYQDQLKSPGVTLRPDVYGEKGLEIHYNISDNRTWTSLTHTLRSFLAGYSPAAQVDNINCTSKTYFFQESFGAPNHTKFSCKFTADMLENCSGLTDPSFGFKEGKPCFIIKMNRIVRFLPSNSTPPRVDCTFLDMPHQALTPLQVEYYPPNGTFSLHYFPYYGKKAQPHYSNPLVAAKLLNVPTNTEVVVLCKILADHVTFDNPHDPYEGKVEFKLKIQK

Compound: Cc1nc2c(OCc3ccccc3)cccn2c1CC#N [SCH28080]
- effect on H+ flux (rate of acidification) (gastric H/K ATPase [1]): significantly reduces
- effect on ATP-dependent transport of acid across the bilayer [2]: inhibited
- effect on H+ flux (rate of acidification) (gastric H/K ATPase [3]; 100 μM SCH28080, hog gastric vesicles, P<0.05): significantly reduces
- effect on acidification of outer well medium (representative experiment) (gastric H/K ATPase [3]; 100 μM SCH28080, hog vesicles, 5 mM MgATP, 100 μg/ml valinomycin): blocks acidification

Compound: gramicidin D
- flux across the inventive membrane [4]: 10^8 ions per second, per gramicidin D molecule
- resistance with gramicidin D, PETE membranes ([5]; KCl, n=5, PL alone 39.25 MΩ): 5.41±1.11 MΩ
- change of resistance with gramicidin D, PETE membranes ([5]; NMDGCl): did not change
- resistance after gramicidin D, PC filters with 3, 5 and 8 μm pores ([5]; presence of K+ (100 mM KCl), P<0.005): virtually zero
- resistance on addition of gramicidin D, leached PLLA membranes ([5]; presence of K+, n=6, PL alone 11.38 MΩ): 0.23±0.15 MΩ
- change of resistance on addition of gramicidin D, leached PLLA membranes ([5]; presence of NMDG+): unaffected
- reduction of resistance by gramicidin D, PC filters with 3, 5 and 8 μm pores ([5]; presence of NMDG+ (impermeant cation)): not
- current with gramicidin D [6]: about 30 μVA

Compound: COc1ccc(CCN2C(=O)CSC2c2ccc(C)c(C)c2)cc1 (centres unmarked) [compound B, 2-(3,4-dimethyphenyl)-3-[2-(4-methoxyphenyl)ethyl]-thiazolidin4-one]
- effect on Kv1.5 K+ channel currents (I-V curve) (Kv1.5 K+ channels [7]; 200 nM and 500 nM compound B): inhibited
- effect on Kv1.5 K+ current after addition of Kv1.5 vesicles (Kv1.5 K+ channels [7]; 1 μM compound B, P<0.001): inhibited
- effect on potassium ion currents of membrane fused with Kv1.5 vesicles (Example 1) (Kv1.5 K+ channels [7]; concentration not given): inhibited
- IC50 (Kv1.5 K+ channels [7]; sigmoidal dose-response plot, n=6, 100 mM KCl/20 mM HEPES pH 7.4, read-out: IC50, Kv1.5-mediated K+ currents expressed as ΔI at 70 mV as % maximum): 170 ± 40 nM
- resistance of PLLA membrane + phospholipids + Kv1.5 vesicles after inhibitor (Kv1.5 K+ channels [8]): 4.13±0.52 MΩ
